The results in this text go back to the supplement of paper PMC4723716.

The test system of the assay is Plasmodium falciparum NF54 gametocytes. The settings on record: 384, incubation time: 72 h. On the procedure: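 Known antimalarials and MMV control compounds in dose response against each stage (I–V) […] The fitted EC50 is reported as IC50 in µM; '>' marks the top dose reached without a curve.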
The mark [1] stands for this setting: gametocyte stage: Stage I Dose Response IC50 (µM), assay protocol: TSSA.
Where [2] appears, read: gametocyte stage: Stage II Dose Response IC50 (µM), assay protocol: TSSA.
[3] abbreviates: gametocyte stage: Stage III Dose Response IC50 (µM), assay protocol: TSSA.
[4] abbreviates: gametocyte stage: Stage IV Dose Response IC50 (µM), assay protocol: TSSA.
The mark [5] stands for this setting: gametocyte stage: Stage V Dose Response IC50 (µM), assay protocol: TSSA.
Where [6] appears, read: gametocyte stage: Stage I Dose Response IC50 (µM), assay protocol: SaLSSA.
Where [7] appears, read: gametocyte stage: Stage II Dose Response IC50 (µM), assay protocol: SaLSSA.
[8] abbreviates: gametocyte stage: Stage III Dose Response IC50 (µM), assay protocol: SaLSSA.
[9] abbreviates: gametocyte stage: Stage IV Dose Response IC50 (µM), assay protocol: SaLSSA.
Setting [10] is: gametocyte stage: Stage V Dose Response IC50 (µM), assay protocol: SaLSSA.

Structures can show the parent of a compound that is named as a salt.

For `CC(C)(N)CNC(=O)CC1CCC2(CC1)OOC1(O2)C2CC3CC(C2)CC1C3` (stereo not given), the “IC50 of gametocyte viability” value is, setting by setting: under setting [1], 0.00821 µM; under setting [2], 0.00599 µM; under setting [3], 0.00837 µM; under setting [4], 0.00742 µM; under setting [5], more than 12.5 µM.

`CC(C)(N)CNC(=O)C[C@H]1CC[C@]2(CC1)OOC1(O2)C2CC3CC(C2)CC1C3` (stereo not given in full): the “IC50 of gametocyte viability” value is 0.00769 µM under setting [6]; 0.00395 µM under setting [7]; 0.00158 µM under setting [8]; 0.00787 µM under setting [9]; more than 12.5 µM under setting [10].

Regarding `OC(c1cc(C(F)(F)F)nc2c(C(F)(F)F)cccc12)C1CCCCN1` (racemic) [Mefloquine (Racemic)], the “IC50 of gametocyte viability” value by setting is: under setting [1], 0.0569 µM; under setting [2], 0.117 µM; under setting [3], 0.127 µM; under setting [4], 2.08 µM; under setting [5], 5.77 µM.

Consider `O[C@@H](c1cc(C(F)(F)F)nc2c(C(F)(F)F)cccc12)[C@H]1CCCCN1` (racemic) [Mefloquine (Racemic)], for which the “IC50 of gametocyte viability” value is, setting by setting: under setting [6], 0.0441 µM; under setting [7], 0.052 µM; under setting [8], 0.143 µM; under setting [9], 0.818 µM; under setting [10], 0.132 µM.

As to `CCN(CC)CCCNc1ccnc2cc(Cl)ccc12` [AQ-13], the “IC50 of gametocyte viability” value by setting is: under setting [6], 0.0426 µM; under setting [7], 0.0335 µM; under setting [8], 0.484 µM; under setting [9], 6.47 µM; under setting [10], 6.05 µM.

For the compound `CCN(CC)Cc1cc(Nc2ccnc3cc(Cl)ccc23)ccc1O` [Amodiaquine], the “IC50 of gametocyte viability” value worked out at 0.0118 µM under setting [6]; 0.0134 µM under setting [1]; 0.00579 µM under setting [7]; 0.0088 µM under setting [2]; 0.0961 µM under setting [8]; 0.107 µM under setting [3]. Moreover, the “IC50 of gametocyte viability” value was 2.46 µM under setting [9], 5.4 µM under setting [4], 1.78 µM under setting [10] and more than 9.39 µM under setting [5].

In the case of `CO[C@H]1O[C@@H]2O[C@@]3(C)CC[C@H]4[C@H](C)CC[C@@H]([C@H]1C)[C@@]24OO3` [Artemether], the “IC50 of gametocyte viability” value is, setting by setting: under setting [6], 0.0159 µM; under setting [1], 0.0183 µM; under setting [7], 0.00459 µM; under setting [2], 0.0125 µM; under setting [8], 0.00617 µM; under setting [3], 0.0175 µM. Further, the “IC50 of gametocyte viability” value is 0.019 µM under setting [9], 0.0184 µM under setting [4], more than 12.5 µM under setting [10] and more than 12.5 µM under setting [5].

As for `C[C@@H]1CC[C@H]2[C@@H](C)C(=O)O[C@@H]3O[C@@]4(C)CC[C@@H]1[C@]32OO4` [Artemisinin] [listing 1 of 2 here], the “IC50 of gametocyte viability” value is 0.0243 µM under setting [6]; 0.0204 µM under setting [7]; 0.0118 µM under setting [8]; 0.0373 µM under setting [9]; more than 12.5 µM under setting [10].

Regarding `C[C@@H]1CC[C@H]2[C@@H](C)C(=O)O[C@@H]3O[C@@]4(C)CC[C@@H]1[C@]32OO4` [Artemisinin] [listing 2 of 2 here], the “IC50 of gametocyte viability” value was 0.027 µM under setting [1]; 0.0188 µM under setting [2]; 0.0218 µM under setting [3]; 0.0322 µM under setting [4]; more than 12.5 µM under setting [5].

On to `C[C@H]1[C@H](N2CCS(=O)(=O)CC2)O[C@@H]2O[C@@]3(C)CC[C@H]4[C@H](C)CC[C@@H]1[C@@]24OO3` [Artemisone] [listing 1 of 2 here], for which the “IC50 of gametocyte viability” value reads like this: under setting [6], 0.00277 µM; under setting [7], 0.00176 µM; under setting [8], 0.00339 µM; under setting [9], 0.00421 µM; under setting [10], more than 12.5 µM.

For the compound `C[C@H]1[C@H](N2CCS(=O)(=O)CC2)O[C@@H]2O[C@@]3(C)CC[C@H]4[C@H](C)CC[C@@H]1[C@@]24OO3` [Artemisone] [listing 2 of 2 here], the “IC50 of gametocyte viability” value under setting [1] came out at 0.00264 µM; the “IC50 of gametocyte viability” value under setting [2] stood at 0.00244 µM; the “IC50 of gametocyte viability” value under setting [3] turned out to be 0.00605 µM; the “IC50 of gametocyte viability” value under setting [4] was determined as 0.00548 µM; the “IC50 of gametocyte viability” value under setting [5] is more than 7.85 µM.

With `C[C@H]1[C@@H](O)O[C@@H]2O[C@@]3(C)CC[C@H]4[C@H](C)CC[C@@H]1[C@@]24OO3` [Artenimol (Dihydro artemisinin)] [listing 1 of 2 here], the “IC50 of gametocyte viability” value by setting is: under setting [6], 0.00579 µM; under setting [7], 0.0027 µM; under setting [8], 0.00674 µM; under setting [9], 0.0207 µM; under setting [10], more than 12.5 µM.

For the compound `C[C@H]1[C@@H](O)O[C@@H]2O[C@@]3(C)CC[C@H]4[C@H](C)CC[C@@H]1[C@@]24OO3` [Artenimol (Dihydro artemisinin)] [listing 2 of 2 here], the “IC50 of gametocyte viability” value is, setting by setting: under setting [1], 0.00685 µM; under setting [2], 0.00766 µM; under setting [3], 0.0152 µM; under setting [4], 0.0403 µM; under setting [5], more than 12.5 µM.

Consider `C[C@H]1[C@H](OC(=O)CCC(=O)O)O[C@@H]2O[C@@]3(C)CC[C@H]4[C@H](C)CC[C@@H]1[C@@]24OO3` [Artesunate] [listing 1 of 2 here], for which the “IC50 of gametocyte viability” value is 0.00773 µM under setting [6]; 0.00351 µM under setting [7]; 0.0126 µM under setting [8]; 0.0491 µM under setting [9]; more than 10.6 µM under setting [10].

`C[C@H]1[C@H](OC(=O)CCC(=O)O)O[C@@H]2O[C@@]3(C)CC[C@H]4[C@H](C)CC[C@@H]1[C@@]24OO3` [Artesunate] [listing 2 of 2 here]: the “IC50 of gametocyte viability” value was 0.00565 µM under setting [1]; 0.00577 µM under setting [2]; 0.0172 µM under setting [3]; 0.02 µM under setting [4]; more than 12.5 µM under setting [5].

For the compound `O=C1C(O)=C([C@H]2CC[C@H](c3ccc(Cl)cc3)CC2)C(=O)c2ccccc21` [Atovaquone] [listing 1 of 2 here], the “IC50 of gametocyte viability” value runs as follows: under setting [1], more than 12.5 µM; under setting [2], more than 12.5 µM; under setting [3], more than 12.5 µM; under setting [4], more than 12.5 µM; under setting [5], more than 12.5 µM.

Take `O=C1C(O)=C([C@H]2CC[C@H](c3ccc(Cl)cc3)CC2)C(=O)c2ccccc21` [Atovaquone] [listing 2 of 2 here]: the “IC50 of gametocyte viability” value runs as follows: under setting [6], more than 12.5 µM; under setting [7], more than 12.5 µM; under setting [8], more than 12.5 µM; under setting [9], 2.37 µM; under setting [10], more than 12.5 µM.

As for `CC[C@H]1OC(=O)[C@H](C)[C@@H](O[C@H]2C[C@@](C)(OC)[C@@H](O)[C@H](C)O2)[C@H](C)[C@@H](O[C@@H]2O[C@H](C)C[C@H](N(C)C)[C@H]2O)[C@](C)(O)C[C@@H](C)CN(C)[C@H](C)[C@@H](O)[C@]1(C)O` [Azithromycin], the “IC50 of gametocyte viability” value is more than 12.5 µM under setting [1]; more than 12.5 µM under setting [2]; more than 12.5 µM under setting [3]; more than 12.5 µM under setting [4]; more than 12.5 µM under setting [5].

In the case of `CC[C@H]1OC(=O)[C@H](C)[C@H](O[C@H]2C[C@@](C)(OC)[C@@H](O)[C@H](C)O2)[C@H](C)[C@@H](O[C@@H]2O[C@H](C)C[C@H](N(C)C)[C@H]2O)[C@](C)(O)C[C@@H](C)CN(C)[C@H](C)[C@H](O)[C@]1(C)O` [Azithromycin], the “IC50 of gametocyte viability” value was more than 12.5 µM under setting [6]; more than 12.5 µM under setting [7]; more than 12.2 µM under setting [8]; more than 12.5 µM under setting [9]; more than 12.5 µM under setting [10].

Consider `CCN(CC)CCCC(C)Nc1ccnc2cc(Cl)ccc12` (stereo not given) [Chloroquine], for which the “IC50 of gametocyte viability” value was 0.0956 µM under setting [6]; 0.084 µM under setting [1]; 0.0981 µM under setting [7]; 0.0806 µM under setting [2]; more than 6.25 µM under setting [8]; more than 6.25 µM under setting [3]. The “IC50 of gametocyte viability” value reads like this: under setting [9], more than 6.25 µM; under setting [4], more than 6.25 µM; under setting [10], more than 6.25 µM; under setting [5], more than 6.25 µM.

`CC(C)NC(=N)NC(=N)Nc1ccc(Cl)c(Cl)c1` [Chlorproguanil hydrochloride/1.11]: the “IC50 of gametocyte viability” value is 9.35 µM under setting [6]; more than 12.5 µM under setting [1]; 7.79 µM under setting [7]; more than 12.5 µM under setting [2]; 7.87 µM under setting [8]; 8.37 µM under setting [3]. In addition, the “IC50 of gametocyte viability” value was 5.21 µM under setting [9], 7.57 µM under setting [4], 4.8 µM under setting [10] and more than 11 µM under setting [5].

Take `CC1(C)N=C(N)N=C(N)N1c1ccc(Cl)cc1` [Cycloguanil]: the “IC50 of gametocyte viability” value is, setting by setting: under setting [6], more than 12.5 µM; under setting [7], more than 12.5 µM; under setting [8], more than 12.5 µM; under setting [9], more than 12.5 µM; under setting [10], more than 12.5 µM.
